# Source: US20220313698A1, “MODULATORS OF CYSTIC FIBROSIS TRANSMEMBRANE CONDUCTANCE REGULATOR” (Vertex Pharmaceuticals Incorporated, priority 2019, published 2022)
# Tests used:
# [1] = target: T1, CFTR-mediated chloride transport (Homo sapiens, UniProt P13569); test: Corrector Assay B - membrane potential dye assay (enteroid cells); details: for Corrector Assay B % activity: % of chloride transport of triple combination control (3 μM Compound A + 3 μM tezacaftor + 300 nM ivacaftor); for EC50: read-out: Corrector Assay B EC50, human intestinal enteroid cells, 18-24 h incubation, acute 10 μM forskolin + 300 nM ivacaftor;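 for all read-outs here: methyl oxonol membrane potential fluorescence followed over 15 min after switching to chloride-free buffer with forskolin, 100 µM IBMX and ivacaftor, in presence of CaCC blockers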
# [2] = target: T1, CFTR-mediated chloride transport; test: Corrector Assay A - membrane potential dye assay (enteroid cells); details: for Corrector Assay A % activity: % of chloride transport of triple combination control (1 μM (14S)-dispiro macrocycle + 3 μM tezacaftor + 300 nM ivacaftor); for EC50: read-out: Corrector Assay A EC50, human intestinal enteroid cells, 18-24 h incubation, acute 10 μM forskolin + 300 nM ivacaftor
EC50 [1],SMILES,Corrector Assay B % activity [1],Corrector Assay A % activity [2],EC50 [2]
–,"CC1(C)CC2CCC(c3ccccc3)Nc3cccc(n3)S(=O)(=O)NC(=O)c3ccc(-n4ccc(OCCC5(C(F)(F)F)CC5)n4)nc3N1C2 (single isomer, unassigned) [Compound 384, 12,12-Dimethyl-17-phenyl-8-(3-{2-[1-(trifluoromethyl)cyclopropyl]ethoxy}-1H-pyrazol-1-yl)-2λ^6-thia-3,9,11,18,23-pentaazatetracyclo[17.3.1.111,14.05,10]tetracosa-1(22),5,7,9,19(23),20-hexaene-2,2,4-trione]",++ (++ is 30-60%),+ (+ is <30%),< 1000 nM
–,"CC1(C)CC2CN1c1nc(-n3ccc(OCCC4(C(F)(F)F)CC4)n3)ccc1C(=O)NS(=O)(=O)c1cccc(n1)NCCC2c1ccccc1 (single isomer, unassigned) [Compound 393, 12,12-dimethyl-15-phenyl-8-(3-{2-[1-(trifluoromethyl)cyclopropyl]ethoxy}-1H-pyrazol-1-yl)-2λ^6-thia-3,9,11,18,23-pentaazatetracyclo[17.3.1.111,14.05,10]tetracosa-1(22),5,7,9,19(23),20-hexaene-2,2,4-trione]",+++ (+++ is >60%),+++ (+++ is >60%),< 1000 nM
–,"CC1(C)CC2CC(c3ccccc3)CNc3cccc(n3)S(=O)(=O)NC(=O)c3ccc(-n4ccc(OCCC5(C(F)(F)F)CC5)n4)nc3N1C2 (single isomer, unassigned) [Compound 391, 12,12-dimethyl-16-phenyl-8-(3-{2-[1-(trifluoromethyl)cyclopropyl]ethoxy}-1H-pyrazol-1-yl)-2λ^6-thia-3,9,11,18,23-pentaazatetracyclo[17.3.1.111,14.05,10]tetracosa-1(22),5,7,9,19(23),20-hexaene-2,2,4-trione]",+++ (+++ is >60%),+++ (+++ is >60%),< 1000 nM
< 1000 nM,"CC(C)(C)c1ccc2c(n1)N1C[C@@H](CCC(c3cncnc3)Nc3cccc(n3)S(=O)(=O)NC2=O)CC1(C)C (single isomer, unassigned) [Compound 297]",+++ (+++ is >60%),+++ (+++ is >60%),< 1000 nM
< 1000 nM,"CC(C)(C)c1ccc2c(n1)N1C[C@@H](CCC(c3ccccn3)Nc3cccc(n3)S(=O)(=O)NC2=O)CC1(C)C (single isomer, unassigned) [Compound 293]",+++ (+++ is >60%),++ (++ is 30-60%),< 1000 nM
< 1000 nM,"CC(C)(C)c1ccc2c(n1)N1C[C@@H](CC[C@@H](c3ccccc3)Nc3cccc(n3)S(=O)(=O)NC2=O)CC1(C)C (single isomer, unassigned) [Compound 294]",+++ (+++ is >60%),+++ (+++ is >60%),< 1000 nM

SMILES,EC50 [1],Corrector Assay B % activity [1],Corrector Assay A % activity [2],EC50 [2]
"CC1(C)CC2CCC(c3ccccc3)Nc3cccc(n3)S(=O)(=O)NC(=O)c3ccc(-n4ccc(OCCC5(C(F)(F)F)CC5)n4)nc3N1C2 (single isomer, unassigned) [Compound 383, 12,12-Dimethyl-17-phenyl-8-(3-{2-[1-(trifluoromethyl)cyclopropyl]ethoxy}-1H-pyrazol-1-yl)-2λ^6-thia-3,9,11,18,23-pentaazatetracyclo[17.3.1.111,14.05,10]tetracosa-1(22),5,7,9,19(23),20-hexaene-2,2,4-trione]",< 1000 nM,+++ (+++ is >60%),++ (++ is 30-60%),< 1000 nM
